Experimental findings from patent US20110165652A1, “COMPOSITIONS, METHODS AND SYSTEMS FOR SINGLE MOLECULE SEQUENCING” (LIFE TECHNOLOGIES CORPORATION, priority 2008, published 2011) are described below.

“Also recorded” adds a separate entry of the source.

Type in all cases: biochemical
Data set [1] in a line: Exonuclease activity of Phi29 variants. The settings on record: printed in column Ensemble Extension Activity or in text.
For data set [2], the system named is template specifying incorporation of a single γ-labeled nucleotide. The experiment in a line: Real time on-surface single molecule detection of γ-labeled nucleotide incorporation. To be noted: for Activity on Detection System: more signals: number of signals relative to parent enzyme; for Activity on Detection System: Signals detected (timing of appearance) / Activity on Detection System: long duration signals / Activity on Detection System: high ASB signals: relative to parent enzyme. Here is the method: Real time “On surface” experiments were performed to characterize the activity of the Phi29 variants on an exemplary single molecule sequencing system (FIGS. 72A and B). Chambered slides were prepared to facilitate injection and multiple experiments data collection from several chambers using a single slide. The template specified incorporation of a single γ-labeled nucleotide. The samples were excited using a 488 nm Argon ion laser at 2.5 mW and the data were collected at 25 ms integration time. Each stream of data was collected for 1500 frames, consecutive streams were collected for ˜5 minutes by moving to new fields of views (FOVs). FRETAN software was used to obtain the donor and acceptor traces.
After trace analysis, the selected signals (with acceptor signal over background greater than 4, i.e., ASN≧4) were characterized by examining attributes including duration, ASN and timing of signal appearance (i.e., start of signals). The variants that are of special interest include Variants 2 and 3.

The test system of data set [3] is γ-dGTP. Kind of data set: 7-base homopolymeric extension reactions (FIG. 19B, 19C). The settings on record: for extension under limiting conditions: 30 second to 1 minute extension time. From the text: When the aspartic acid at position 456 is mutated, the activity is reduced but still detectable. FIG. […]
Three residues that have been implicated in catalysis of nucleotide incorporation by phi29 DNA polymerase are D458, D456, and V250 (Berman, Kamtekar et al., 2007). […] In one embodiment, D456 is mutated to glutamic acid, thus distorting the active site, but still allowing catalysis due to the presence of the functional group. The backbone of V250 additionally appears to play a role in catalysis; in some embodiments, the chemistry step will be slowed by mutating the V250 residue to an isoleucine or alanine in order to slow the chemistry step.

The test system of data set [4] is 5′ fluorescein-labeled primer:template duplex. Kind of data set: Ensemble primer extension with gamma-labeled dNTP by Phi29 mutant protein. The settings on record: for Ensemble Extension Activity: γ-nucleotide incorporation: relative to parent Phi29 exo(−) D12A/D66A, 0.5 μM or 5 μM gamma-labeled dNTP, 10 seconds to 5 minutes; for extension (FIG. 70C, 70D): ensemble PAGE analyses. From the text:
Table 1, below, summarizes the ability of each mutant Phi29 polymerase to incorporate gamma-labeled nucleotides (as indicated in the column entitled “Ensemble Extension Activity”), fidelity of replication (as indicated in the column entitled “Fidelity”) and for activity in a single-molecule detected system, as depicted in FIGS. 20-59′ and 69-76 and associated description (see below), and indicated in the last column, entitled “Activity on Detection System.” Each and every mutation introduced into a given Phi29 mutant protein is listed in the column entitled “Mutations”; mutations are designated by the original amino acid/its position/its replacement, e.g., V250A means that valine at position 250 was replaced by alanine by site specific mutagenesis. If two or more amino acid substitutions are made, then each is designated as above and separated by a “/”. The predicted effect of a given mutation on polymerase activity, based on structure-function analysis of Phi29 polymerase, is provided in the column entitled “Expected Effect.” The various Phi29 mutants generated via selective mutagenesis, along with any applicable results of extension studies, fidelity assays and single molecule detection studies using each mutant protein, are collectively summarized in Table 1, below. To perform the extension studies, 330 nM Phi29 mutant protein and 100 nM 5′ fluorescein-labeled primer:template duplex were co-incubated in a solution comprising 50 mM Tris (pH 7.0), 2 mM MnCl2, 2 mM DTT, 0.1% Triton-X-100, 0.01% Tween-20. The reactions were initiated by addition of 0.5 μM or 5 μM of gamma-labeled dNTP, and quenched via addition of 30 mM EDTA at timepoints ranging from 10 seconds to 5 minutes. The reaction products were then separated on a 20% denaturing acrylamide gel and imaged on a Bio-Rad Molecular Imager FX. The intensity of each reaction product was quantified using Bio-Rad Quantity One software. FIGS. 20-59′ depict the results of extension studies conducted using specific Phi29 mutants.

Data set [5] shares this test system. The experiment in a line: Replication fidelity: primer extension with incorrect (non-complementary) gamma-labeled nucleotide. To be noted: incorrect gamma-labeled nucleotide in lieu of the complementary one. As for the experimental part:
To assay the replication fidelity of each mutant Phi29 polymerase protein, primer extensions were carried out in the same manner, except that an incorrect (i.e., non-complementary) gamma-labeled nucleotide was added to the extension mixture in lieu of the complementary nucleotide, and the amount of extended product following extension in presence of the incorrect nucleotide was analyzed.

Data set [6] deals with dG2Oy650. Kind of data set: Inc50: nucleotide concentration at which half of the primer is extended one base in sixty seconds. The settings on record: dG2Oy650 in duplicate. From the text: In one exemplary embodiment, an alanine was substituted for the valine at position 250. As is seen in FIG. 70C (Variant 5) the rate of extension by this mutant polymerase is decreased relative to wild type. […] To compensate for the reduced extension we combined V250A with several mutations that increase binding efficiency of γ-modified nucleotides. […] As is seen in FIG. 70C, Variant 2, the extension of the V250A mutant is improved through introduction of the E375Y mutation. The mutation V250A was also combined with the mutations E375A/Q380A as well as E375C.

Data set [7] has as its system template specifying incorporation of a single γ-labeled nucleotide followed by a base-labeled nucleotide. Kind of data set: On-surface single molecule detection, single γ-labeled nucleotide followed by a base-labeled nucleotide. The settings on record: for frequency of γ-signals detected: single γ and base-labeled nucleotide incorporation. As for the experimental part: Similar experiments were performed using a template specifying incorporation of a single γ-labeled nucleotide followed by a base-labeled nucleotide and data were analyzed as described above.
Example sets of signals detected using Phi29 variants over time are shown (FIGS. 72-75). […] Next, considering the appearance of BL-signals, the signals for the parent enzyme (#1) are nicely distributed and follow a Gaussian distribution (peak in the 121-180 second bin), whereas Variant 2's BL-signals appear between 0-120 seconds—again indicating an earlier appearance of signals when Variant 2 is compared with the parent enzyme.

Turning to “D12A/D66A/D169A: Phi29 polymerase exo minus variant”, the exonuclease activity entry in data set [1] was “exo deficient”.
For the substance “D456E: Phi29 exo(−) (D12A/D66A) polymerase mutant [Variant D456E]”, the “Activity on Detection System: more signals” value (shortened to “Activity … more signals”) in data set [2] is “Fewer signals”. Besides, in data set [3] (1 μM γ-dGTP), the “extension under limiting conditions” value is on record as “significant impact”. Besides, in data set [4] (γ-nucleotides), the “Ensemble Extension Activity: first base extension” value is listed as “Increased first”.
“T15I: mutant based on wild type Φ29 DNA polymerase [Variant T15I]”: the exonuclease activity result in data set [1] is listed as “Still has exo”.
As for “D456N: Phi29 exo(−) (D12A/D66A) polymerase mutant [Variant D456N]”, the “Activity … more signals” value in data set [2] was “Fewer signals”. Also, the “extension under limiting conditions” value is “significant impact” in data set [3] (1 μM γ-dGTP) and “significantly reduced extension” in data set [3] (1 μM γ-dGTP, listed as D456 to an asparagine). For the same substance, the “extension under permissive conditions” value in data set [3] (5 minutes with 5 μM nucleotides) is recorded as “somewhat reduced extension”. Besides, the “Ensemble Extension Activity: γ-nucleotide incorporation” value in data set [4] was “Impaired”.
“V250A/E375C: Phi29 exo(−) (D12A/D66A) polymerase mutant”: the “Fidelity (mis-incorporation)” value in data set [5] is reported as “appears to remain intact; also recorded: No mis-”. Besides, in data set [2], the “Activity … more signals” value is recorded as 3.5x more signals, the “Activity on Detection System: Signals detected (timing of appearance)” value (shortened to “Activity … (timing of appearance)”) is reported as “earlier” and the “Activity on Detection System: long duration signals” value (shortened to “Activity … long duration signals”) was “More long duration”. For the same substance, the “Ensemble Extension Activity: γ-nucleotide incorporation” value in data set [4] was “Decreased rate”.
With “E375A: Phi29 exo(−) (D12A/D66A) polymerase mutant [Variant E375A]”, in data set [5], the “Fidelity (mis-incorporation)” value is reported as “No mis-”. In addition, in data set [6], the Inc50 entry was “reduced”. Also, the “Activity … more signals” value in data set [2] is reported as 3x more signals. Besides, the “extension (FIG. 70C, 70D)” value in data set [4] (γ-nucleotides) was “increased extension”. In addition, the “Ensemble Extension Activity: γ-nucleotide incorporation” value in data set [4] is reported as “More efficient”.
For the substance “Parent Enzyme Phi29exo(−) D12A/D66A: Phi29 polymerase with mutations D12A and D66A, SEQ. ID: 3, reduced exonuclease activity”, in data set [5], the “Fidelity (mis-incorporation)” value is given as “No mis-”. Also, the exonuclease activity entry in data set [1] (listed as D12A/D66A) is listed as “exo deficient”. Moreover, the exonuclease activity result in data set [1] (listed as Phi29 exo(−)) is “reduced exonuclease activity”. In data set [2], the “Activity … more signals” value is reported as “Benchmark”. Moreover, in data set [7], the “appearance of BL-signals after injection (window; peak bin for parent)” value is 121 to 180 s and the “frequency of γ-signals detected” value is given as “few signals are detected”. Moreover, the “Ensemble Extension Activity: γ-nucleotide incorporation” value in data set [4] is on record as “Benchmark”.
For “V250A/E375A/Q380A: Phi29 exo(−) (D12A/D66A) polymerase mutant”, the “Fidelity (mis-incorporation)” value in data set [5] is “appears to remain intact; also recorded: No mis-”. Also, in data set [2], the “Activity … more signals” value is recorded as 3x more signals, the “Activity … (timing of appearance)” value is recorded as “earlier”, the “Activity on Detection System: high ASB signals” value (“Activity … high ASB signals” below) is “More high ASB signals” and the “Activity … long duration signals” value is “More long duration”. The “Ensemble Extension Activity: γ-nucleotide incorporation” value in data set [4] was “Decreased rate”.
On to “Phi29: Phi29 polymerase benchmark of the Inc50 comparison in Table 1; probably the exo(−) parent [reference compound]”, for which the Inc50 result in data set [6] is on record as “(Phi29 = 0.14)”.
In the case of “V250A/E375Y: Phi29 exo(−) (D12A/D66A) polymerase mutant”, the “Fidelity (mis-incorporation)” value in data set [5] is “appears to remain intact; also recorded: No mis-”. Besides, in data set [2], the “Activity … more signals” value stood at 3x more signals, the “Activity … high ASB signals” value is listed as “More high ASB signals” and the “Activity … long duration signals” value was “More long duration”. Besides, in data set [2] (signals with ASN≧4), the “ASN of signals (population of molecules)” value is “higher ASN”, the “duration of signals (population of molecules)” value is reported as “longer duration” and the “frequency of events detected” value was “higher frequency of events detected”. In data set [7], the “appearance of BL-signals after injection (window; peak bin for parent)” value fell in the range of 0 to 120 s, the “time after injection in which most of the γ-signals are detected” value is at most 60 s and the “frequency of γ-signals detected” value is recorded as “higher frequency”. Besides, the “extension (FIG. 70C, 70D)” value in data set [4] (γ-nucleotides, listed as 2) is recorded as “slowed in incorporation”. Moreover, in data set [4] (γ-nucleotides, listed as Variant 2), the “extension (FIG. 70C, 70D)” value was “improved”. In addition, the “Ensemble Extension Activity: γ-nucleotide incorporation” value in data set [4] is given as “Decreased rate”.
In the case of “V250A: Phi29 exo(−) (D12A/D66A) polymerase mutant [Variant V250A]”, in data set [6], the Inc50 entry is given as “remains relatively unaffected”. The “Activity … more signals” value in data set [2] is recorded as “Fewer signals”. In data set [3] (1 μM γ-dGTP), the “extension within a minute” value is “at least 5 bases” and the “extension under limiting conditions” value is “visibly slowing down extension”. Moreover, the “extension (FIG. 70C, 70D)” value in data set [4] (γ-nucleotides) is “decreased”. Also, the “Ensemble Extension Activity: γ-nucleotide incorporation” value in data set [4] was “Decreased rate”.
As for “D169A: Phi29 polymerase variant generated by total DNA synthesis [Variant D169A]”, the exonuclease activity result in data set [1] was “exo deficient”.
On to “Q380A: Phi29 exo(−) (D12A/D66A) polymerase mutant [Variant Q380A]”, for which the “Fidelity (mis-incorporation)” value in data set [5] was “No mis-”. Moreover, the “Activity … more signals” value in data set [2] is 2.5x more signals. In addition, the “Ensemble Extension Activity: γ-nucleotide incorporation” value in data set [4] is “More efficient”.
“D458N: Phi29 exo(−) (D12A/D66A) polymerase mutant [Variant D458N]”: in data set [5], the “Fidelity (mis-incorporation)” value is on record as “No activity”. In addition, the “Ensemble Extension Activity: γ-nucleotide incorporation” value in data set [4] is recorded as “No activity”.
With “E375C: Phi29 exo(−) (D12A/D66A) polymerase mutant [Variant E375C]”, in data set [2], the “Activity … more signals” value was “Slightly higher”, the “Activity … (timing of appearance)” value was “earlier” and the “Activity … high ASB signals” value is on record as “More high ASB signals”. Moreover, the “Ensemble Extension Activity: γ-nucleotide incorporation” value in data set [4] is given as “More efficient”.
“N62D: mutant based on wild type Φ29 DNA polymerase [Variant N62D]”: the exonuclease activity result in data set [1] is “Still has exo”.
